target: T1, Smo (Mus musculus, UniProt P56726); assay: Gli reporter luciferase assay in NIH-3T3/Gli reporter cells stimulated with mouse Shh-N end fragment; format: cell-based; conditions: NIH3T3; 1 μM compound; NIH-3T3/Gli reporter cells with mouse Shh-N culture supernatant, 48 hr; luciferase activity, control without compound as 100; read-out: inhibitory rate (%) at 1 μM
T1 construct: endogenous in cells; host or cells: NIH-3T3 cells stably carrying the Gli reporter plasmid
Procedure: Gli reporter plasmid was constructed by inserting 8×Gli-binding site and chicken δ-crystalline promoter into the upstream of luc+ of pGL3 (Promega).
prepared in reference to the base sequence described in GenBank accession No.; X02187, and chicken genome DNA (Clontech) as a template. PCR reaction was performed using Pfu Turbo (Stratagene) and following the attached protocol. The obtained 108 bp fragment was digested with restriction enzymes BglII and HindIII, and inserted into BglII-HindIII site of pGL3 to give plasmid pGL3/δ-cry promoter.
As 8×Gli-binding site, a sequence containing eight 9-bp Gli bound consensus sequences (GACCACCCA) described in Yoon et al., J. Biol. Chem., vol. 273, pages 3496-3501 (1998) was prepared from synthetic DNA. That is, two synthetic DNAs,
were heat treated at 95° C. for 2 minutes, and incubated at 37° C. for 1 hr for annealing to give a double stranded DNA of the above-mentioned two synthetic DNAs. The obtained double stranded DNA was digested with restriction enzymes BglII and KpnI, and the obtained DNA fragment was inserted into BglII-KpnI site of pGL3/δ-cry promoter to construct plasmid pGL3/δ-cry promoter, 8×Gli binding site, i.e., Gli reporter plasmid.
HEK293 cells were grown in D-MEM medium (Invitrogen) containing 10% fetal bovine serum in a 10 cm dish and pcDNA3.1/mShh-N was introduced into the cells using FuGENE6 (Roche Applied Science). Thereafter, the HEK293 cells were cultured in a carbon dioxide gas incubator at 37° C. for 24 hours, and the medium was exchanged with D-MEM medium (Invitrogen) containing 2% fetal bovine serum. After culturing for 48 hr, a culture supernatant containing recombinant type mouse Shh-N end fragment was obtained by filtration using a filter ([…]).
Using D-MEM (Invitrogen) containing 10% fetal bovine serum, expression plasmid pcDNA3.1 and Gli reporter plasmid (pGL3/δ-cry promoter, 8×Gli binding site) produced by the method of Experimental Example 1 were introduced into NIH-3T3 cells grown in a 10 cm dish by the use of FuGENE6 (Roche Applied Science).
After culture for 24 hr, the cells were recovered, suspended in D-MEM medium containing 10% fetal bovine serum and supplemented with Geneticin (Life Technologies Oriental, Inc.) to a final concentration of 500 μg/ml, diluted to 10^4 cells/ml, plated on a 96 well plate, and cultured in a carbon dioxide gas incubator at 37° C. to give Geneticin resistant transformed cell line.
The obtained transformed cell line was cultured in a 96 well plate, mouse Shh-N end fragment obtained in Experimental Example 3 was added, and NIH-3T3/Gli reporter cell, which is a cell line capable of induction of luciferase expression, was selected.
NIH-3T3/Gli reporter cells cultured in D-MEM (Invitrogen) containing 10% fetal bovine serum were plated in a 96 well white plate at 1×10^4 cells/well, and cultured overnight in a carbon dioxide gas incubator at 37° C. The medium was removed, a compound (50 μl) and culture supernatant of mouse Shh-N end fragment-expressing HEK293 (D-MEM medium containing 2% fetal bovine serum, 50 μl) were added, and the cells were cultured for 48 hr in a carbon dioxide gas incubator at 37° C. Bright-Glo (Promega, 50 μl) was added, and the mixture was stirred, after which luciferase activity was measured by EnVision (PerkinElmer). The inhibition rate was calculated based on the luciferase activity of the control without addition of the compound as 100.

T1 sequence (P56726 33-793): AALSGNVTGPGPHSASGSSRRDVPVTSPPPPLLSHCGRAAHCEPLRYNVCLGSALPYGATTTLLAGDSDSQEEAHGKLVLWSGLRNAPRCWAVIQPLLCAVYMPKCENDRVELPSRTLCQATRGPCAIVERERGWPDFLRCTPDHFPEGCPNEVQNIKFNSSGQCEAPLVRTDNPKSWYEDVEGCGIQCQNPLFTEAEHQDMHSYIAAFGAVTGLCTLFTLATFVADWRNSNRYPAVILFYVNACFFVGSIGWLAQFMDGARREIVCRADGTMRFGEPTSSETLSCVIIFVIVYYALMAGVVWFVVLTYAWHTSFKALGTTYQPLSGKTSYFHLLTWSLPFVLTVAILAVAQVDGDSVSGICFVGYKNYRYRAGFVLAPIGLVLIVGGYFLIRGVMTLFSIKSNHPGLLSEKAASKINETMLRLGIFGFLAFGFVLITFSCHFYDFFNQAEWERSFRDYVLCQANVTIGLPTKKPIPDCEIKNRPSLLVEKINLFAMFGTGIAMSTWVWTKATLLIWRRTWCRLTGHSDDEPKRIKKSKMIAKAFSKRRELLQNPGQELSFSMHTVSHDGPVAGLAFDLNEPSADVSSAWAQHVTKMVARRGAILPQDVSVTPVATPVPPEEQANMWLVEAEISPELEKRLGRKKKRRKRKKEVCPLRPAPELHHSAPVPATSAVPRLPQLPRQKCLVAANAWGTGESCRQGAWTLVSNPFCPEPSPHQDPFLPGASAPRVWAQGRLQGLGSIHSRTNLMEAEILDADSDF

| inhibition at 1 µM | Structure (SMILES) |
| --- | --- |
| 98% | Cc1nc2c(c(OCC(F)(F)F)c(C(=O)NC3CCN(C(=O)CO)CC3)n2C)c(=O)n1CCc1ccccc1 [Example 12, N-[1-(hydroxyacetyl)piperidin-4-yl]-2,7-dimethyl-4-oxo-3-(2-phenylethyl)-5-(2,2,2-trifluoroethoxy)-4,7-dihydro-3H-pyrrolo[2,3-d]pyrimidine-6-carboxamide] |
| 97% | CCc1nc2c(c(OCC(F)(F)F)c(C(=O)NC3CCN(C(=O)CO)CC3)n2C)c(=O)n1CC(=O)c1ccccc1 [Example 13, 2-ethyl-N-[1-(hydroxyacetyl)piperidin-4-yl]-7-methyl-4-oxo-3-(2-oxo-2-phenylethyl)-5-(2,2,2-trifluoroethoxy)-4,7-dihydro-3H-pyrrolo[2,3-d]pyrimidine-6-carboxamide] |
| 95% | Cc1nc2c(c(OCC(F)(F)F)c(C(=O)NC3CCN(C(=O)CO)CC3)n2C)c(=O)n1Cc1ccccc1Cl [Example 14, 3-(2-chlorobenzyl)-N-[1-(hydroxyacetyl)piperidin-4-yl]-2,7-dimethyl-4-oxo-5-(2,2,2-trifluoroethoxy)-4,7-dihydro-3H-pyrrolo[2,3-d]pyrimidine-6-carboxamide] |
| 97% | Cc1nc2c(c(OCC(F)(F)F)c(C(=O)NC3CCN(C(=O)CO)CC3)n2C)c(=O)n1CCc1ccc(F)cc1 [Example 15, 3-[2-(4-fluorophenyl)ethyl]-N-[1-(hydroxyacetyl)piperidin-4-yl]-2,7-dimethyl-4-oxo-5-(2,2,2-trifluoroethoxy)-4,7-dihydro-3H-pyrrolo[2,3-d]pyrimidine-6-carboxamide] |
| 97% | CCc1nc2c(c(OCC(F)(F)F)c(C(=O)NC3CCOCC3)n2C)c(=O)n1CC(=O)c1ccccc1 [Example 16, 2-ethyl-7-methyl-4-oxo-3-(2-oxo-2-phenylethyl)-N-(tetrahydro-2H-pyran-4-yl)-5-(2,2,2-trifluoroethoxy)-4,7-dihydro-3H-pyrrolo[2,3-d]pyrimidine-6-carboxamide] |
| 98% | CCc1nc2c(c(OCC(F)(F)F)c(C(=O)NC3CCN(C(=O)CO)CC3)n2C)c(=O)n1Cc1cccc(Cl)c1 [Example 17, 3-(3-chlorobenzyl)-2-ethyl-N-[1-(hydroxyacetyl)piperidin-4-yl]-7-methyl-4-oxo-5-(2,2,2-trifluoroethoxy)-4,7-dihydro-3H-pyrrolo[2,3-d]pyrimidine-6-carboxamide] |
| 97% | CCOc1c(C(=O)NC2CCN(C(=O)CO)CC2)sc2nc(C)n(CC(=O)c3ccccc3)c(=O)c12 [Example 18, 5-ethoxy-N-[1-(hydroxyacetyl)piperidin-4-yl]-2-methyl-4-oxo-3-(2-oxo-2-phenylethyl)-3,4-dihydrothieno[2,3-d]pyrimidine-6-carboxamide] |
| 97% | CCc1nc2c(c(OCC(F)(F)F)c(C(=O)NC3CC[S+]([O-])CC3)n2C)c(=O)n1CC(=O)c1ccccc1 (stereo not drawn) [Example 21, 2-ethyl-7-methyl-N-(1-oxidetetrahydro-2H-thiopyran-4-yl)-4-oxo-3-(2-oxo-2-phenylethyl)-5-(2,2,2-trifluoroethoxy)-4,7-dihydro-3H-pyrrolo[2,3-d]pyrimidine-6-carboxamide] |
| 98% | CCc1nc2c(c(OC(C)C)c(C(=O)NC3CCN(C(=O)CO)CC3)n2C)c(=O)n1CC(=O)c1ccccc1 [Example 22, 2-ethyl-N-[1-(hydroxyacetyl)piperidin-4-yl]-7-methyl-5-(1-methylethoxy)-4-oxo-3-(2-oxo-2-phenylethyl)-4,7-dihydro-3H-pyrrolo[2,3-d]pyrimidine-6-carboxamide] |
| 99% | Cc1nc2c(c(OC(C)C)c(C(=O)NC3CCN(C(=O)CO)CC3)n2C)c(=O)n1-c1ccccc1 [Example 29, N-[1-(hydroxyacetyl)piperidin-4-yl]-2,7-dimethyl-5-(1-methylethoxy)-4-oxo-3-phenyl-4,7-dihydro-3H-pyrrolo[2,3-d]pyrimidine-6-carboxamide] |
| 96% | CCc1nc2c(c(OCC(F)(F)F)c(C(=O)NC3CCN(C(=O)CO)CC3)n2C)c(=O)n1CC(=O)c1ccc(F)cc1 [Example 33, 2-ethyl-3-[2-(4-fluorophenyl)-2-oxoethyl]-N-[1-(hydroxyacetyl)piperidin-4-yl]-7-methyl-4-oxo-5-(2,2,2-trifluoroethoxy)-4,7-dihydro-3H-pyrrolo[2,3-d]pyrimidine-6-carboxamide] |
| 97% | CCc1nc2c(c(OC(C)C)c(C(=O)NC3CCN(C(=O)CO)CC3)n2C)c(=O)n1CC(=O)c1ccc(F)cc1 [Example 34, 2-ethyl-3-[2-(4-fluorophenyl)-2-oxoethyl]-N-[1-(hydroxyacetyl)piperidin-4-yl]-7-methyl-5-(1-methylethoxy)-4-oxo-4,7-dihydro-3H-pyrrolo[2,3-d]pyrimidine-6-carboxamide] |

Reference: patent US8614208B2, “Fused heterocyclic ring derivative and use thereof” (Takeda Pharmaceutical Company Limited, priority 2009, dated 2013)
